Measurements as given in US9981970B2, “Bicyclic ureas and thiadiazolidine-1, 1-dioxides as CETP inhibitors” (Merck Sharp & Dohme Corp., priority 2013, dated 2018).
Like-named read-outs stand apart in the source and are kept apart here.

Target: T1, endogenous CETP from serum (Homo sapiens, UniProt P11597)
T1 construct: yielding a concentration of approximately 15 nM endogenous CETP in the assay; from tissue; host or cells: human serum
T1 sequence (P11597 18-493): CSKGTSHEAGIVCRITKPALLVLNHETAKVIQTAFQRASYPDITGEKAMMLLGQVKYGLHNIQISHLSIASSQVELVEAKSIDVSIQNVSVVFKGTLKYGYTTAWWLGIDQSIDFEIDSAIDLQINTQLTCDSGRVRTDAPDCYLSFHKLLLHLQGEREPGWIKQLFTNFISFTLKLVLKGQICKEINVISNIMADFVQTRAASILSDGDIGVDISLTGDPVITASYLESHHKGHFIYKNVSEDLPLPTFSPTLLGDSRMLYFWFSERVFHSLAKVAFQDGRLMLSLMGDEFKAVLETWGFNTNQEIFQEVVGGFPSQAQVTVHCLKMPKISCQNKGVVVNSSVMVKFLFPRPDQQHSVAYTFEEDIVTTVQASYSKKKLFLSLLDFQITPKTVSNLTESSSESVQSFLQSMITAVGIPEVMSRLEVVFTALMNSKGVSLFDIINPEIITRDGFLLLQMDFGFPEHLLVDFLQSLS
Experiment: RTA assay in 95% human serum (in vitro radioactive assay of CETP-catalyzed CE and TG transfer)
Type: biochemical
Source text: In Vitro Radioactive Assays of CETP-Catalyzed CE and TG Transfer (RTA Assay)
Reagents and sources are: [3H] cholesteryl oleate (GE #TRK.886), [3H] Triolein (Perkin-Elmer NET-431), Butylated hydroxyl toluene (Aldrich, #D4740-4), DOPC (Sigma, # P6354), Sodium Bromide (Fisher scientific #S255-500), PEG 8000 (Fisher, #BP233-1), and human HDL (Intracel Corp #RP-036).
Both assays measure the transfer of [3H] cholesteryl oleate or [3H] triolein from exogenous LDL to HDL.
Radiolabeled donor particles are generated by first combining 100 μl of 200 μM butylated hydroxyl toluene in CHCl3, 216 μL of 21.57 mM DOPC in EtOH, and either 500 μCi [3H]-triolein (Perkin Elmer #NET-431) or 500 μCi [3H]-cholesteryl oleate (GE #TRK886) in a glass tube. Reagents are mixed, dried under nitrogen, and then resuspended in 2 mL of 50 mM Tris, 27 μM EDTA at pH 7.4. After a brief vortex, the solution is sonicated until clear and mixed with 20 mL of fresh human serum. The mixture is incubated overnight at 37° C. The [3H] labeled LDL substrate is separated at 1.063 g/ml density by sequential ultracentrifugal flotation in NaBr according to the method of Havel, Eder, et al., 1955, and Chapman, Goldstein, et al., 1981. Once isolated the particles are dialyzed 3× in CETP buffer (50 mM Tris, pH 7.4, 100 mM NaCl, 1 mM EDTA). Human HDL is purchased from Intracel and used as the acceptor particles.
Transfer assays are performed in a 96-well v-bottom polypropylene plate. For the RTA using recombinant CETP (2% RTA), an assay cocktail is prepared with the final concentrations 128 μg/mL HDL, 20 nM rCETP, 2% human serum, and 1×CETP buffer. 1 μL of each test compound diluted in DMSO is added to 47 μL of assay cocktail per well and incubated at 37° C. for 1 hour. To initiate the transfer reaction, 2 μL radiolabeled LDL is added. After an additional 60 min of incubation at 37° C., the transfer action is terminated by precipitation of LDL with an equal volume of 20% WN PEG 8000. The plates are centrifuged at 2000 rpm for 30 minutes at 4° C. A 40 μL aliquot of the HDL-containing supernatant is transferred to a Packard Optiplate™ with 200 μL of MicroScint™ 20. After mixing, plates are counted by liquid scintillation. Counts present in the supernatant for blanks (wells containing only HDL acceptor, CETP buffer and DMSO) are subtracted from those containing test compounds and used to correct for non-specific transfer.
This is then combined with HDL and CETP buffer and the reaction proceeds as above and is terminated as described.
Comparison of the counts of samples with inhibitors to an uninhibited (DMSO only) positive control yield a percent inhibition. A plot of percent inhibition vs. log of inhibitor concentration, fit to a Sigmoidal 4 parameter equation is used to calculate IC50.
Starting materials are commercially available or are made using known procedures or as shown below. The examples may be synthesized according to the general schemes provided below and by using the synthetic intermediates that are described. […] When compounds of Formula I are mentioned herein, such compounds include compounds defined generically by Formula I and also the specific examples disclosed herein.

[1] = Table 1, data generally obtained using the RTA assay in 95% human serum, read-out: IC50

SMILES	IC50 [1]	IC50 (RTA assay in 95% human serum, endogenous CETP, read-out: RTA (95% HS))
COc1ccc(-c2ccc(C(=O)O)cc2C)cc1-c1ccc(C(F)(F)F)cc1[C@@H]1CC[C@H]2[C@@H](c3cc(C(F)(F)F)cc(C(F)(F)F)c3)N(C)C(=O)N12 [Example 12, 2″-{(1R,5S,7aS)-1-[3,5-bis(trifluoromethyl)phenyl]-2-methyl-3-oxohexahydro-1H-pyrrolo[1,2-c]imidazol-5-yl}-4′-methoxy-2-methyl-4″-(trifluoromethyl)-l,1′:3′,l″-terphenyl-4-carboxylic acid]	1.42 µM	–
COc1ccc(-c2ccc(C(=O)O)nc2C)cc1-c1ccc(C(F)(F)F)cc1[C@@H]1CC[C@H]2[C@@H](c3cc(C(F)(F)F)cc(C(F)(F)F)c3)NC(=O)N12 [Example 14, 5-[2′-{(1R,5S,7aS)-1-[3,5-bis(trifluoromethyl)phenyl]-3-oxohexahydro-1H-pyrrolo[1,2-c]imidazol-5-yl}-methoxy-4′-(trifluoromethyl)biphenyl-3-yl]-6-methylpyridine-2-carboxylic acid]	1.93 µM	–
COc1ccc(C2CCC(C(=O)O)CC2)cc1-c1ccc(C(F)(F)F)cc1[C@@H]1CC[C@H]2[C@@H](c3cc(C(F)(F)F)cc(C(F)(F)F)c3)NS(=O)(=O)N12 (stereo partly drawn) [Example 23, 4-[2′-{(3R,3aS,6S)-3-[3,5-bis(trifluoromethyl)phenyl]-1,1-dioxidohexahydropyrrolo[1,2-b][1,2,5]thiadiazol-6-yl}-6-methoxy-4′-(trifluoromethyl)biphenyl-3-yl]cyclohexanecarboxylic acid]	0.268 µM	–
COc1ccc(-c2cccnc2C)cc1-c1ccc(C(F)(F)F)cc1[C@@H]1CC[C@H]2[C@@H](c3cc(C(F)(F)F)cc(C(F)(F)F)c3)NC(=O)N12 [Example 13, (1R,5S,7aS)-1-[3,5-bis(trifluoromethyl)phenyl]-5-[2′-methoxy-5′-(2-methylpyridin-3-yl)-4-(trifluoromethyl)biphenyl-2-yl]hexahydro-3H-pyrrolo[1,2-c]imidazol-3-one]	0.795 µM	–
COc1ccc(CCC(=O)O)cc1-c1ccc(C(F)(F)F)cc1[C@@H]1CC[C@H]2[C@@H](c3cc(F)cc(C(F)(F)F)c3)NS(=O)(=O)N12 [Example 25, 3-[2′-{(3R,3aS,6S)-3-[3-fluoro-5-(trifluoromethyl)phenyl]-1,1-dioxidohexahydropyrrolo[1,2-b][1,2,5]thiadiazol-6-yl}-6-methoxy-4′-(trifluoromethyl)biphenyl-3-yl]propanoic acid]	3.12 µM	–
COc1ccc(CCC(=O)O)cc1-c1ccc(C(F)(F)F)cc1[C@@H]1CC[C@H]2[C@@H](c3cc(F)cc(C(F)(F)F)c3)NC(=O)N12 [Example 17, 3-[2′-{(1R,5S,7aS)-1-[3-fluoro-5-(trifluoromethyl)phenyl]-3-oxohexahydro-1H-pyrrolo[1,2-c]imidazol-5-yl}-6-methoxy-4′-(trifluoromethyl)biphenyl-3-yl]propanoic acid]	3.16 µM	–
COc1ncc(-c2ccc(C(=O)O)cc2C)cc1-c1ccc(C(F)(F)F)cc1[C@@H]1CC[C@H]2[C@@H](c3cc(C(F)(F)F)cc(C(F)(F)F)c3)NC(=O)N12 [Example 1, 4-(5-(2-((1R,5 S,7aS)-1-(3,5-bis(trifluoromethyl)phenyl)-3-oxohexahydro-1H-pyrrolo[1,2-c]imidazol-5-yl)-4-(trifluoromethyl)phenyl)-6-methoxypyridin-3-yl)-3-methylbenzoic acid]	–	0.335 µM
COc1ncc(-c2ccc(C(=O)O)cc2C)cc1-c1ccc(C(F)(F)F)cc1[C@@H]1CC[C@H]2[C@@H](c3cc(C(F)(F)F)cc(C(F)(F)F)c3)N(C)C(=O)N12 [Example 4, 4-{5-[2-{(1R,5S,7aS)-1-[3,5-bis(trifluoromethyl)phenyl]-2-methyl-3-oxohexahydro-1H-pyrrolo[1,2-c]imidazol-5-yl}-4-(trifluoromethyl)phenyl]-6-methoxypyridin-3-yl}-3-methylbenzoic acid]	1.5 µM	–
COc1ncc(-c2ccc(C(=O)O)cc2C)cc1-c1ccc(C(F)(F)F)cc1[C@@H]1CC[C@H]2[C@@H](c3cc(F)cc(C(F)(F)F)c3)NS(=O)(=O)N12 [Example 24, 4-{5-[2-{(3R,3aS,6S)-3-[3-fluoro-5-(trifluoromethyl)phenyl]-1,1-dioxidohexahydropyrrolo[1,2-b][1,2,5]thiadiazol-6-yl}-4-(trifluoromethyl)phenyl]-6-methoxypyridin-3-yl}-3-methylbenzoic acid]	1.26 µM	–
COc1ccc(-c2ccc(C(=O)O)cc2C)cc1-c1ccc(C(F)(F)F)cc1[C@@H]1CC[C@H]2[C@@H](c3ccnc(C(F)(F)F)c3)NC(=O)N12 [Example 19, 4′-methoxy-2-methyl-2″-{(1R,5S,7aS)-3-oxo-1-[2-(trifluoromethyl)pyridin-4-yl]hexahydro-1H-pyrrolo[1,2-c]imidazol-5-yl}-4″-(trifluoromethyl)-1,1′:3′,1″-terphenyl-4-carboxylic acid]	4.87 µM	–
COc1ccc(-c2ccc(C(=O)O)cc2C)cc1-c1ccc(C(F)(F)F)cc1[C@@H]1CC[C@H]2[C@@H](c3cc(C(F)(F)F)cc(C(F)(F)F)c3)NC(=O)N12 [Example 9]	1.36 µM	–
COc1ccc(CCC(=O)O)cc1-c1ccc(C(F)(F)F)cc1[C@@H]1CC[C@H]2[C@@H](c3cc(C(F)(F)F)cc(C(F)(F)F)c3)N(C)C(=O)N12 [Example 10, 3-[2′-{(1R,5S,7aS)-1-[3,5-bis(trifluoromethyl)phenyl]-2-methyl-3-oxohexahydro-1H-pyrrolo[1,2-c]imidazol-5-yl}-6-methoxy-4′-(trifluoromethyl)biphenyl-3-yl]propanoic acid]	2.95 µM	–
COc1cc(F)c(C(C)C)cc1-c1ccc(C(F)(F)F)cc1[C@@H]1CC[C@H]2[C@@H](c3cc(F)cc(C(F)(F)F)c3)NC(=O)N12 [Example 6]	1.07 µM	–
COc1ccc([C@H]2[C@H](C)C(=O)N[C@@H]2C)cc1-c1ccc(C(F)(F)F)cc1[C@@H]1CC[C@H]2[C@@H](c3cc(C(F)(F)F)cc(C(F)(F)F)c3)NC(=O)N12 [Example 15, (1R,5S,7aS)-1-[3,5-bis(trifluoromethyl)phenyl]-5-{5′-[(2R,3R,4S)-2,4-dimethyl-5-oxopyrrolidin-3-yl]-2′-methoxy-4-(trifluoromethyl)biphenyl-2-yl}hexahydro-3H-pyrrolo[1,2-c]imidazol-3-one]	1.74 µM	–
COc1ncc(-c2ccc(C(=O)O)cc2C)cc1-c1ccc(C(F)(F)F)cc1[C@@H]1CC[C@H]2[C@@H](c3ccnc(C(F)(F)F)c3)NC(=O)N12 [Example 18, 4-{6-methoxy-5-[2-{(1R,5S,7aS)-3-oxo-1-[2-(trifluoromethyl)pyridin-4-yl]hexahydro-1H-pyrrolo[1,2-c]imidazol-5-yl}-4-(trifluoromethyl)phenyl]pyridin-3-yl}-3-methylbenzoic acid]	5.04 µM	–
COc1ccc(-c2ccc(C(=O)O)cc2C)cc1-c1ccc(C(F)(F)F)cc1[C@@H]1CC[C@H]2[C@@H](c3cc(C(F)(F)F)cc(C(F)(F)F)c3)NS(=O)(=O)N12 [Example 22, 2″-{(3R,3aS,6S)-3-[3,5-bis(trifluoromethyl)phenyl]-1,1-dioxidohexahydropyrrolo[1,2-b][1,2,5]thiadiazol-6-yl}-4′-methoxy-2-methyl-4″-(trifluoromethyl)-1,1′,:3′,1″-terphenyl-4-carboxylic acid]	0.984 µM	–
